Measured values reported in US4673692A, “Diphenylmethylimine derivatives, their compositions and pharmaceutical uses” (Teikoku Hormone Mfg. Co., Ltd., priority 1984, dated 1987).

How the values were obtained:
[1] = system: carrageenan paw edema; experiment: Anti-inflammatory activity: carrageenan-induced hind paw edema; assay type: in vivo, Male Wistar rats; conditions: 10 mg/kg, p.o.; carrageenan 1 h after dosing, volume measured 3 h later; 5 rats per group
Description: Male Wistar rats weighing 120 to 150 g which had been fasted for 24 hours were used in groups each consisting of 5 rats. In each group, the volumes of the right hind paw were measured by a volume differential meter (made by Ugo Basile Company), and each of the test compounds was suspended in an aqueous solution of 0.5% of carboxymethyl cellulose and 2.0% of Tween 80, and administered orally through a tube. After one hour from the administration, […] suspension of carrageenan in distilled water was subcutaneously injected into the plantar tissues of the right hind paw. Three hours later, the volumes of the right hind paw were again measured. The increase in volume of the right hind paw of each rat in each group (the volume of edema) was measured. The percent edema inhibition was calculated in accordance with the following equation, and the results are shown in Tale 1.

[2] = target: T1, 5-lipoxygenase (Rattus norvegicus, UniProt P12527); experiment: 5-lipoxygenase inhibiting action (formation of 5-HETE and 5,12-diHETE) in white blood cells from rat pleural exudate; assay type: cell-based; conditions: 14C arachidonic acid, A23187, 2 minutes, read-out: concentration inhibiting 50% of the formation of 5-HETE
T1 construct: endogenous in cells; host or cells: white blood cells from the pleural exudate of rats with carrageenan-induced pleurisy
T1 sequence (P12527 1-673): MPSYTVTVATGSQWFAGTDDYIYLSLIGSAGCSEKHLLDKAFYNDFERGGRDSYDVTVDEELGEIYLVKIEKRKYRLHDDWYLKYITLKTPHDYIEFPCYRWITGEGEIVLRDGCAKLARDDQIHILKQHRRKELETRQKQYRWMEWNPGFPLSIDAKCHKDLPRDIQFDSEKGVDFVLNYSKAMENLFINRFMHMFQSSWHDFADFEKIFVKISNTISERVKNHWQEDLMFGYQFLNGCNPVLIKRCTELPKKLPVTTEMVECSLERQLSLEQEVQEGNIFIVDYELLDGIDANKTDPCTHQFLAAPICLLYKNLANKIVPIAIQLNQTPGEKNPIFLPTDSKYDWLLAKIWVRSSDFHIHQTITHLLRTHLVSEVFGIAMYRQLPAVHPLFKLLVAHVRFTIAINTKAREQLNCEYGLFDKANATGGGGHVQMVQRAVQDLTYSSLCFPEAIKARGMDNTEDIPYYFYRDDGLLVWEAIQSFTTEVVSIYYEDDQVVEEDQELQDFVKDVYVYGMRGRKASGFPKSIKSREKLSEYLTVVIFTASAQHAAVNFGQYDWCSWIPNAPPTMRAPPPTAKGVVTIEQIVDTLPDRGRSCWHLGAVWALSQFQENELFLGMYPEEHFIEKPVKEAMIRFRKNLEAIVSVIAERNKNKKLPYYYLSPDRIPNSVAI
Description: (§1) The actions of the compounds of this invention to inhibit 5-lipoxygenase and cyclooxygenase activities were measured in accordance with the method of Siegel et al. [Prostaglandins, Vol. 21, page 123 (1981)].
(§2) The exudate was extracted from the pleural cavity of a rat with carrageenan-induced pleurisy. White blood cells from the exudate were suspended in 50 mM Tris-HCl buffer (pH 7.4) containing 100 mM sodium chloride and 1 mM calcium chloride. To a fixed amount of the white blood cell suspension were added a test compound, ^14 C arachidonic acid and a calcium ionophore (A23187), and the mixture was incubated for 2 minutes. […] The radioactivity of each of the fractions was measured by a liquid scintillation counter, and the percentage of the radioactivity of each fraction based on the total radioactivity was calculated (the ratio of formation). The inhibition ratio of the test compound against the synthesis ability of each fraction was determined by using the ratio of formation as an index.
(§3) The lipoxygenase activity was determined by using the formation of 5S-hydroxy-6,8,11,14-eicosatetraenoic acid (5-HETE) and 5S,12R-dihydroxy-6,8,10,14-eicosatetraenoic acid (5,12-diHETE) as indices. The cyclooxygenase activity was determined by using the formation of 12-hydroxyheptadecatrienoic acid (HHT) as an index. […]

[3] = system: stomach; experiment: Ulcerogenic activity; assay type: in vivo, male Wistar rats; conditions: 300 mg/kg, p.o.; 4 hours after dosing; fasted rats
Description: The test compound was orally administered by the same way as in the test on anti-inflammatory activity to male Wistar rats weighing 120 to 150 g which had been fasted for 24 hours. Four hours later, they were killed with ether.

[4] = system: adjuvant-induced arthritis; experiment: Preventive effect on adjuvant-induced arthritis; assay type: in vivo, Sprague-Dawley strain female rats
Description: Sprague-Dawley strain female rats, 6 weeks old, were used. Killed and dried M. butyricum (Difco) were suspended (6 mg/ml) in light liquid paraffin, and the suspension was sterilized under pressure to form Freund's complete adjuvant. 0.1 ml of the Freund's complete adjuvant was injected subcutaneously into the right hind paws of the animals to induce arthritis. After the injection of the Freund's complete adjuvant, the test compound was orally administered once a day for 21 consecutive days including the day of injection. The volumes of the left and right hind paws were measured by using the device devised by Fujihira [Eiichi Fujihira: Oyo Yakuri 5, 169-182 (1971)], and the increases in volume from before the injection of the adjuvant was measured and used as an index of swelling. Changes in swelling after the stopping of drug administration were also examined. The animals were used in groups each consisting of 10 members.

[5] = system: granuloma formation; experiment: Inhibitory effect on granuloma formation (filter paper implantation); assay type: in vivo, Wistar strain male rats; conditions: Rattus norvegicus, po, 168 h; once a day for 7 days; p<0.001, n=7-8; read-out: dose significantly decreasing the dry weight of granuloma
Description: Wistar strain male rats were used. Under anesthesia with hexobarbital-Na (100 mg/kg, i.p.), the hair of the back of each rat was removed. Filter paper pieces prepared in tablet form (Toyo Filter Paper, No. 85K, 9 mm diameter) sterilized under pressure were implanted subcutaneously on the left and right sides of the back, and oily procaine penicillin G (a product of Banyu Pharmaceutical Co., Ltd.; 300,000 units/ml) was intramuscularly injected in an amount of 0.25 ml.
After the implantation of the filter paper pieces, the test compound was orally administered once a day for 7 consecutive days including the day of implantation. On the day next to the day of the final administration, the filter paper pieces and granuloma formed around them were excised, and dried at about 60° C. for 24 hours. Their weight was measured. The weight of the filter paper pieces was subtracted, and the balance was defined as the dry amount of glanuloma.

[6] = system: cyclooxygenase; experiment: Cyclooxygenase inhibiting action (formation of HHT) in white blood cells from rat pleural exudate; assay type: cell-based; conditions: 14C arachidonic acid, A23187, 2 minutes, read-out: concentration inhibiting 50% of the formation of HHT
Description: as §1, §2, §3

[7] = Pharmacological actions of previously disclosed compound

With `CC(=O)ON=C(c1ccccc1)c1cc(C(C)(C)C)c(O)c(C(C)(C)C)c1` [B, 3,5-di-t-butyl-4-hydroxybenzophenone O-acetyloxime] the “Percent inhibition (edema)” value [1] was 22.7%.

With `CCC(=O)ON=C(c1ccccc1)c1cc(C(C)(C)C)c(O)c(C(C)(C)C)c1` [C, 3,5-di-t-butyl-4-hydroxybenzophenone O-propionyloxime] the “Percent inhibition (edema)” value [1] was 23.6%.

For `CC(C)(C)c1cc(C(=NO)c2ccccc2)cc(C(C)(C)C)c1O` [A, 3,5-di-t-butyl-4-hydroxybenzophenone oxime], the IC50 [2] was 6.2 µM, the gastric trouble [3] was “no gastric trouble” and the “Percent inhibition (edema)” value [1] was 26.7%. For the same compound, the minimal effective dose ([4]; Rattus norvegicus, po, 504 h, once a day for 21 days, p<0.05, n=10, read-out: dose significantly inhibiting the development of adjuvant-induced arthritis) was no less than 3 mg/kg, the “rebound phenomenon in swelling after the stopping of drug administration” value ([4]; after 21 days of oral administration) was “No rebound phenomenon was noted” and the minimal effective dose [5] was no less than 3 mg/kg. For the same compound, the IC50 [6] was 1.25 µM.

For `CC(C)(C)c1cc(C(=NN)c2ccccc2)cc(C(C)(C)C)c1O` [D, 3,5-di-t-butyl-4-hydroxybenzophenone hydrazone], the “Percent inhibition (edema)” value [1] was 21.0%.

For `CON=C(c1ccccc1)c1cc(C(C)(C)C)c(O)c(C(C)(C)C)c1`, the “pharmacological actions such as anti-inflammatory, analgesic or anti-rheumatic activity” value [7] was “does not substantially show pharmacological actions”.
